# Source: PMC7587356, “High-Throughput Screening for Inhibitors of the SARS-CoV-2 Protease Using a FRET-Biosensor” (Molecules, 2020)
# Where a name gives a salt, the structure may show the parent alone. Read-outs that look alike come from different tables or passages of the source.
# Biological target: SARS-CoV-2 3CLpro (Severe acute respiratory syndrome coronavirus 2, UniProt P0DTD1)
# Assay: biochemical
# Assay type: biochemical
# Design: Replicate_1 / Replicate_2 / mean / mean (LOPAC_screen_w_protease): unit not given here
# Settings: for inhibition at 5 µM: 4 h
# [1] = sheet LOPAC_screen_w_protease, primary screen of LOPAC1280 at 5 µM with protease, mean of the two replicates, read-out: mean
# [2] = sheet LOPAC_screen_w_protease, primary screen of LOPAC1280 at 5 µM with protease, replicate 1, read-out: Replicate_1
# [3] = sheet LOPAC_screen_w_protease, primary screen of LOPAC1280 at 5 µM with protease, replicate 2, read-out: Replicate_2
# [4] = sheet LOPAC_screen_w_protease, LOPAC1280 at 5 µM, mean of two replicates
# [5] = sheet LOPAC_screen_w_protease, LOPAC1280 at 5 µM, replicate 1
# [6] = sheet LOPAC_screen_w_protease, LOPAC1280 at 5 µM, replicate 2
# [7] = LOPAC1280 primary screen with protease, 5 µM compound, replicate 1, read-out: Replicate_1 (LOPAC_screen_w_protease)
# [8] = LOPAC1280 primary screen with protease, 5 µM compound, replicate 2, read-out: Replicate_2 (LOPAC_screen_w_protease)
# [9] = LOPAC1280 primary screen with protease, 5 µM compound, mean of the two replicates
# [10] = sheet LOPAC_screen_w_protease, LOPAC1280 primary screen at 5 µM, with protease, mean of the two replicates, read-out: mean
# [11] = sheet LOPAC_screen_w_protease, LOPAC1280 primary screen at 5 µM, with protease, replicate 1, read-out: Replicate_1
# [12] = sheet LOPAC_screen_w_protease, LOPAC1280 primary screen at 5 µM, with protease, replicate 2, read-out: Replicate_2
# [13] = LOPAC1280 primary screen with protease, 5 µM compound, mean of two replicates
# [14] = LOPAC1280 primary screen with protease, 5 µM compound, replicate 1
# [15] = LOPAC1280 primary screen with protease, 5 µM compound, replicate 2
# [16] = sheet LOPAC_screen_w_protease, LOPAC1280 primary screen at 5 µM, with protease, replicate 1
# [17] = sheet LOPAC_screen_w_protease, LOPAC1280 primary screen at 5 µM, with protease, replicate 2
# [18] = sheet LOPAC_screen_w_protease, LOPAC1280 primary screen with protease, 5 µM compound, mean of the two replicates, read-out: mean
# [19] = sheet LOPAC_screen_w_protease, LOPAC1280 primary screen with protease, 5 µM compound, replicate 1, read-out: Replicate_1
# [20] = sheet LOPAC_screen_w_protease, LOPAC1280 primary screen with protease, 5 µM compound, replicate 2, read-out: Replicate_2
# [21] = sheet LOPAC_screen_w_protease, primary screen with protease, mean of two replicates, read-out: mean
# [22] = sheet LOPAC_screen_w_protease, primary screen with protease, replicate 1, read-out: Replicate_1
# [23] = sheet LOPAC_screen_w_protease, primary screen with protease, replicate 2, read-out: Replicate_2
smiles,measurement,setting,value
N#C/C(=C\c1ccc(O)c(O)c1)C(=O)Nc1ccccc1 [Tyrphostin AG 494],inhibition at 5 µM,[1],4.07%
same,inhibition at 5 µM,[2],4.44%
same,inhibition at 5 µM,[3],3.69%
NC(=O)C1=CN([C@@H]2O[C@H](COP(=O)([O-])OP(=O)([O-])OC[C@H]3O[C@@H](n4cnc5c(N)ncnc54)[C@H](OP(=O)([O-])[O-])[C@@H]3O)[C@@H](O)[C@H]2O)C=CC1.[Na+].[Na+].[Na+].[Na+] [NADPH tetrasodium],mean,[4],1.2074
same,Replicate_1,[5],1.812
same,Replicate_2,[6],0.6031
COc1ccc2c(c1)c(CC(=O)O)c(C)n2C(=O)c1ccc(Cl)cc1 [Indomethacin],Replicate_1,,3.273
same,Replicate_2,,1.395
same,mean,,2.334
COc1cc2c(cc1OC)-c1c/c(=N\c3c(C)cc(C)cc3C)n(C)c(=O)n1CC2 [Trequinsin hydrochloride],inhibition at 5 µM,[7],1.97%
same,inhibition at 5 µM,[8],2%
same,mean (LOPAC_screen_w_protease),[9],1.986
COc1ccc(Cl)cc1C(=O)NCCc1ccc(S(=O)(=O)NC(=O)NC2CCCCC2)cc1 [Glibenclamide],inhibition at 5 µM,[10],0.733%
same,inhibition at 5 µM,[11],1.31%
same,inhibition at 5 µM,[12],0.155%
NCCCNCCCCNCCCN [Spermine tetrahydrochloride],inhibition at 5 µM,read-out: Replicate_1,3.94%
same,inhibition at 5 µM,read-out: Replicate_2,4.24%
same,inhibition at 5 µM,read-out: mean,4.09%
CC1CNCCN1S(=O)(=O)c1cccc2cnccc12.Cl.Cl (stereo not drawn) [H-7 dihydrochloride],mean (LOPAC_screen_w_protease),[13],1.4971
same,Replicate_1 (LOPAC_screen_w_protease),[14],2.345
same,Replicate_2 (LOPAC_screen_w_protease),[15],0.6491
N=C(N)N/N=C/c1c(Cl)cccc1Cl [Guanabenz acetate],inhibition at 5 µM,"sheet LOPAC_screen_w_protease, LOPAC1280 at 5 µM, mean of two replicates, read-out: mean",1.09%
same,inhibition at 5 µM,"sheet LOPAC_screen_w_protease, LOPAC1280 at 5 µM, replicate 1, read-out: Replicate_1",2.57%
same,inhibition at 5 µM,"sheet LOPAC_screen_w_protease, LOPAC1280 at 5 µM, replicate 2, read-out: Replicate_2",-0.398%
Br.CCCN(CCC)C1CCc2ccc(O)cc2C1 (racemic) [(±)-7-Hydroxy-DPAT hydrobromide],mean (LOPAC_screen_w_protease),[13],1.681
same,Replicate_1 (LOPAC_screen_w_protease),[14],3.951
same,Replicate_2 (LOPAC_screen_w_protease),[15],-0.5891
C[C@H](Cc1ccccc1)Nc1ncnc2c1ncn2[C@@H]1O[C@H](CO)[C@@H](O)[C@H]1O [R(-)-N6-(2-Phenylisopropyl)adenosine],mean,"sheet LOPAC_screen_w_protease, LOPAC1280 primary screen at 5 µM, with protease, mean of the two replicates",0.4967
same,Replicate_1,[16],2.165
same,Replicate_2,[17],-1.171
CC(=O)OCC1=C(C(=O)O)N2C(=O)[C@@H](NC(=O)Cc3cccs3)[C@H]2SC1 [Cephalothin sodium],inhibition at 5 µM,[18],5.22%
same,inhibition at 5 µM,[19],4.83%
same,inhibition at 5 µM,[20],5.61%
"Cn1c(=O)c2[nH]c(-c3ccccc3)nc2n(C)c1=O [1,3-Dimethyl-8-phenylxanthine]",mean,"sheet LOPAC_screen_w_protease, LOPAC1280 primary screen with protease, 5 µM compound, mean of the two replicates",6.36
same,Replicate_1,"sheet LOPAC_screen_w_protease, LOPAC1280 primary screen with protease, 5 µM compound, replicate 1",5.626
same,Replicate_2,"sheet LOPAC_screen_w_protease, LOPAC1280 primary screen with protease, 5 µM compound, replicate 2",7.0953
CC(CCc1ccccc1)NC(C)C(O)c1ccc(O)cc1 (stereo not drawn) [Nylidrin hydrochloride],inhibition at 5 µM,[1],3.76%
same,inhibition at 5 µM,[2],4.88%
same,inhibition at 5 µM,[3],2.65%
Nc1ncnc2c1ncn2C1CCCO1 (stereo not drawn) [SQ 22536],mean,"sheet LOPAC_screen_w_protease, LOPAC1280 primary screen at 5 µM, with protease, mean of two replicates",-1.0181
same,Replicate_1,[16],0.976
same,Replicate_2,[17],-3.012
CC1COc2c(N3CCN(C)CC3)c(F)cc3c(=O)c(C(=O)O)cn1c23 (stereo not drawn) [Ofloxacin],inhibition at 5 µM,[18],6.37%
same,inhibition at 5 µM,[19],5.61%
same,inhibition at 5 µM,[20],7.14%
Oc1ccc2c3c1O[C@H]1c4[nH]c5ccccc5c4C[C@@]4(O)[C@@H](C2)N(CC2CC2)CC[C@]314 [Naltrindole hydrochloride],inhibition at 5 µM,read-out: Replicate_1,3.59%
same,inhibition at 5 µM,read-out: Replicate_2,2.54%
same,inhibition at 5 µM,read-out: mean,3.06%
CP(=O)(O)CCCN.Cl [SKF 97541 hydrochloride],mean (LOPAC_screen_w_protease),[13],1.5203
same,Replicate_1 (LOPAC_screen_w_protease),[14],0.8621
same,Replicate_2 (LOPAC_screen_w_protease),[15],2.1785
O=C(O)CCc1nc(-c2ccccc2)c(-c2ccccc2)o1 [Oxaprozin],inhibition at 5 µM,read-out: Replicate_1,3.59%
same,inhibition at 5 µM,read-out: Replicate_2,3.25%
same,inhibition at 5 µM,read-out: mean,3.42%
O=C1NC(=O)C(c2ccccc2)(c2ccccc2)N1 [Phenytoin sodium],inhibition at 5 µM,[7],1.2%
same,inhibition at 5 µM,[8],2.6%
same,mean (LOPAC_screen_w_protease),[9],1.899
O=C(O)C1=CCCNC1 [Guvacine hydrochloride],inhibition at 5 µM,[21],2.3%
same,inhibition at 5 µM,[22],4.35%
same,inhibition at 5 µM,[23],0.255%
Br.Br.N=C(N)SCCN,mean (LOPAC_screen_w_protease),[9],2.032
same,Replicate_1 (LOPAC_screen_w_protease),[14],2.956
same,Replicate_2 (LOPAC_screen_w_protease),[15],1.108
Br.CCCN1CC[C@@H]2c3cc(O)ccc3CC[C@@H]21 (racemic) [cis-(±)-8-OH-PBZI hydrobromide],mean,"sheet LOPAC_screen_w_protease, primary screen of LOPAC1280 at 5 µM with protease, mean of the two replicates",4.0009
same,Replicate_1,"sheet LOPAC_screen_w_protease, primary screen of LOPAC1280 at 5 µM with protease, replicate 1",4.218
same,Replicate_2,"sheet LOPAC_screen_w_protease, primary screen of LOPAC1280 at 5 µM with protease, replicate 2",3.784
Cc1c2ccncc2c(C)c2c1[nH]c1ccccc12 [Ellipticine],inhibition at 5 µM,[21],2.32%
same,inhibition at 5 µM,[22],4.78%
same,inhibition at 5 µM,[23],-0.147%
CC(C)(C)C1(O)CCN2CC3c4ccccc4CCc4cccc(c43)C2C1.Cl (racemic) [(±)-Butaclamol hydrochloride],Replicate_1,,4.433
same,Replicate_2,,5.727
same,mean,,5.08
CCN(CC)CCCCCCCCOC(=O)c1cc(OC)c(OC)c(OC)c1.Cl [TMB-8 hydrochloride],mean,"sheet LOPAC_screen_w_protease, primary screen with protease, 5 µM, mean of two replicates",-0.545
same,Replicate_1,"sheet LOPAC_screen_w_protease, primary screen with protease, 5 µM, replicate 1",0.4949
same,Replicate_2,"sheet LOPAC_screen_w_protease, primary screen with protease, 5 µM, replicate 2",-1.585
CC(N)(Cc1ccc(O)cc1)C(=O)O (racemic) [DL-alpha-Methyl-p-tyrosine],mean,[4],1.1698
same,Replicate_1,[5],0.7226
same,Replicate_2,[6],1.617
COc1cccc(OC)c1OCCNCC1CSc2ccccc2O1 (stereo not drawn) [Benoxathian hydrochloride],inhibition at 5 µM,"sheet LOPAC_screen_w_protease, primary screen with protease, compound at 5 µM, mean of two replicates, read-out: mean",2.7%
same,inhibition at 5 µM,"sheet LOPAC_screen_w_protease, primary screen with protease, compound at 5 µM, replicate 1, read-out: Replicate_1",1.96%
same,inhibition at 5 µM,"sheet LOPAC_screen_w_protease, primary screen with protease, compound at 5 µM, replicate 2, read-out: Replicate_2",3.44%
COc1cc2nc(N3CCN(C(=O)C4COc5ccccc5O4)CC3)nc(N)c2cc1OC (stereo not drawn) [Doxazosin mesylate],inhibition at 5 µM,[7],3.96%
same,inhibition at 5 µM,[8],-0.00681%
same,mean (LOPAC_screen_w_protease),[9],1.977
OCCN1CCN(CC/C=C2/c3ccccc3Sc3ccc(C(F)(F)F)cc32)CC1 [cis-(Z)-Flupenthixol dihydrochloride],inhibition at 5 µM,[21],2.17%
same,inhibition at 5 µM,[22],2.7%
same,inhibition at 5 µM,[23],1.63%
CCOC(=O)N1CCC(=C2c3ccc(Cl)cc3CCc3cccnc32)CC1 [Loratadine],inhibition at 5 µM,[10],0.729%
same,inhibition at 5 µM,[11],-0.189%
same,inhibition at 5 µM,[12],1.65%
Cl.c1ccc2sc(C3(N4CCCCC4)CCCCC3)cc2c1 [BTCP hydrochloride],mean (LOPAC_screen_w_protease),[9],2.11
same,Replicate_1 (LOPAC_screen_w_protease),[14],1.768
same,Replicate_2 (LOPAC_screen_w_protease),[15],2.452
CN(Cc1cnc2nc(N)nc(N)c2n1)c1ccc(C(=O)N[C@@H](CCC(=O)O)C(=O)O)cc1 [(-)Amethopterin],mean (LOPAC_screen_w_protease),[9],2.014
same,Replicate_1 (LOPAC_screen_w_protease),[14],2.356
same,Replicate_2 (LOPAC_screen_w_protease),[15],1.671
OC[C@H]1O[C@@H](n2cnc3c(NC4CCCCC4)ncnc32)[C@H](O)[C@@H]1O [N6-Cyclohexyladenosine],mean (LOPAC_screen_w_protease),[13],1.471
same,Replicate_1 (LOPAC_screen_w_protease),[14],2.337
same,Replicate_2 (LOPAC_screen_w_protease),[15],0.606
CC(=O)O.NC(=NCCC[C@H](N)C(=O)O)NO [NG-Hydroxy-L-arginine acetate],mean,"sheet LOPAC_screen_w_protease, primary screen with protease, mean of two replicates",2.232
same,Replicate_1,"sheet LOPAC_screen_w_protease, primary screen with protease, replicate 1",2.489
same,Replicate_2,"sheet LOPAC_screen_w_protease, primary screen with protease, replicate 2",1.975
